These results are taken from ChEMBL document CHEMBL1201862, “PubChem BioAssay data set” (2004).

The structures appear in SMILES notation.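 96-well plates; 48 h exposure; 5 concentrations. Endpoints by linear interpolation between flanking doses. Not reached: highest tested concentration assigned. Abbreviation: GI50, concentration required for 50% inhibition of growth.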 Activity calls are given as the source filed them. Rule as the data show it: active = GI50 up to about 1.1 µM and inactive = higher. Some results are limits rather than exact numbers.

What all share (assay): DTP human tumour cell line panel, 48 h
Experiment [1] has as its system A549.
For experiment [2], the system named is HOP-62.
The test system of experiment [3] is HOP-92.
Experiment [4] relates to IGROV-1.
Experiment [5] concerns LOX IMVI.
Experiment [6] concerns NCI-H226.
The subject of experiment [7] is NCI-H460.
Experiment [8] has as its system NCI-H522.
Experiment [9] has as its system OVCAR-4.
Experiment [10] deals with RPMI-8226.
The subject of experiment [11] is SF-268.
In experiment [12] the test system is SW-620.
For experiment [13], the system named is U-251.
Experiment [14] has as its system UO-31.
The subject of experiment [15] is A498.
The subject of experiment [16] is HCC 2998.
The subject of experiment [17] is SK-OV-3.
In experiment [18] the test system is DLD-1.
Experiment [19] has as its system DMS-273.
Experiment [20] relates to HOP-18.

Turning to `Cc1cccc(N2C(=O)C3c4[nH]c5ccc(C)cc5c4C4CCC(C(C)(C)C)CC4C3C2=O)c1` (stereo not drawn), the GI50 in experiment [1] is 15.8 µM (inactive); in [2], 15.8 µM (inactive); in [3], 15.7 µM (inactive); in experiment [4], 26.5 µM (inactive); in experiment [5], 17.2 µM (inactive); in [6] it was 17.1 µM (inactive). In addition, the GI50 in [7] is 13.3 µM (inactive); in [8], 19.9 µM (inactive); in [9], 23.1 µM (inactive); in [10] it was 15.5 µM (inactive); in [11] it was 15.5 µM (inactive); in experiment [12], 21 µM (inactive). Moreover, the GI50 was 23.6 µM (inactive) in experiment [13] and 43.4 µM (inactive) in experiment [14].
On to `CCCC[C@H]1[C@@H](OCOc2ccccc2)COC(=O)N1[C@H](C)c1ccccc1`, for which the GI50 in experiment [15] was 12.9 µM (inactive); in experiment [1], 8.79 µM (inactive); in experiment [16] it was 17.7 µM (inactive); in experiment [2] it was 13.8 µM (inactive); in experiment [3], 18.1 µM (inactive); in [4], 14.7 µM (inactive). Also, the GI50 in experiment [5] is 20.8 µM (inactive); in [6], > 100 µM (inactive); in experiment [7] it was 12.6 µM (inactive); in [8], 10.3 µM (inactive); in [9], 10.3 µM (inactive); in [10] it was 6.76 µM (inactive). Further, the GI50 was 16.6 µM (inactive) in experiment [11]; 22.4 µM (inactive) in experiment [17]; 32.1 µM (inactive) in [12]; 14.7 µM (inactive) in experiment [13]; 11.8 µM (inactive) in experiment [14].
For `COc1cc(C(C)O)c(S(=O)(=O)CC(C)O)nn1` (stereo not drawn), the GI50 in experiment [15], in [1], in [16], in experiment [3], in experiment [4] and in experiment [5] was > 100 µM (inactive) throughout. The GI50 in [6] was 64.1 µM (inactive); in experiment [7], > 100 µM (inactive); in experiment [8], > 100 µM (inactive); in experiment [9] it was > 100 µM (inactive); in [10], 43.9 µM (inactive); in [17], > 100 µM (inactive). Further, the GI50 in experiment [12] and in experiment [14] was > 100 µM (inactive) each time.
Consider `CCOC(=O)CCc1c(C)c2c(OC(C)=O)cc(OC(C)=O)cc2oc1=O`, for which the GI50 in experiment [1] was 47.2 µM (inactive); in experiment [18], 46 µM (inactive); in [19], 35 µM (inactive); in experiment [16] it was 82.8 µM (inactive); in [20] it was > 100 µM (inactive); in [2], > 100 µM (inactive). The GI50 in experiment [3] was 6.9 µM (inactive); in experiment [5], > 10 µM (inactive); in experiment [6], > 10 µM (inactive); in experiment [7], 32.5 µM (inactive); in [8], 50.4 µM (inactive); in experiment [9], 42 µM (inactive). Also, the GI50 was 23.3 µM (inactive) in experiment [11], 45.7 µM (inactive) in experiment [12], 55.6 µM (inactive) in [13] and 46.2 µM (inactive) in experiment [14].
In the case of `COc1cccc(N2C(=O)C3c4[nH]c5ccc(C)cc5c4C4CCC(C(C)(C)C)CC4C3C2=O)c1` (stereo not drawn), the GI50 in [15] is > 10 µM (inactive); in experiment [1], 3.38 µM (inactive); in [16] it was 4.11 µM (inactive); in experiment [2] it was > 10 µM (inactive); in experiment [4] it was > 10 µM (inactive); in [5] it was 2.43 µM (inactive). Moreover, the GI50 in experiment [6] is 3.01 µM (inactive); in experiment [7] it was 2.21 µM (inactive); in [8], 1.87 µM (inactive); in experiment [9], 6.27 µM (inactive); in experiment [10] it was 4.06 µM (inactive); in [11] it was 4.73 µM (inactive). In addition, the GI50 in experiment [17] is > 10 µM (inactive); in [12], 3.88 µM (inactive); in experiment [13] it was 3.52 µM (inactive); in [14] it was 2.8 µM (inactive).
Take `N#CCCC1(CCC#N)CCCCCCC(CCC#N)(CCC#N)C(O)C1O` (stereo not drawn): the GI50 in experiment [15], in [1], in [16], in experiment [2], in [3] and in [4] was > 100 µM (inactive) in each case. The GI50 is > 100 µM (inactive) in experiment [5]; 53.8 µM (inactive) in experiment [6]; > 100 µM (inactive) in experiment [7]; > 100 µM (inactive) in experiment [8]; > 100 µM (inactive) in [9]; > 100 µM (inactive) in [11]. Besides, the GI50 in experiment [17], in [12], in experiment [13] and in [14] was > 100 µM (inactive) throughout.
With `Cc1[nH]c(=O)[nH]c(=O)c1C(=O)N(CCO)Cc1ccccc1`, the GI50 in [15] is > 100 µM (inactive); in experiment [16], > 100 µM (inactive); in experiment [2], > 100 µM (inactive); in experiment [3] it was 27 µM (inactive); in experiment [4], 33 µM (inactive); in [5] it was > 100 µM (inactive). In addition, the GI50 in experiment [6] was 17 µM (inactive); in [7] it was > 100 µM (inactive); in experiment [8], > 100 µM (inactive); in experiment [9] it was 29.3 µM (inactive); in experiment [10] it was > 100 µM (inactive); in experiment [11], > 100 µM (inactive). Moreover, the GI50 in experiment [17], in experiment [12], in experiment [13] and in experiment [14] was > 100 µM (inactive) in each case.
Take `CCOC(=O)C(O)(NC(=O)c1ccc(F)cc1)C(F)(F)F` (stereo not drawn): the GI50 in experiment [1] is > 100 µM (inactive); in experiment [16] it was > 100 µM (inactive); in [2] it was > 100 µM (inactive); in [3], > 100 µM (inactive); in [4], 57 µM (inactive); in experiment [5], > 100 µM (inactive). In addition, the GI50 in experiment [6], in experiment [8], in experiment [9], in experiment [10], in [11] and in experiment [17] was > 100 µM (inactive) each time. In addition, the GI50 in experiment [12], in experiment [13] and in experiment [14] was > 100 µM (inactive) in each case.
Turning to `COC1C(O)CC(OC2CC(Oc3cc4cc5c(c(O)c4c(O)c3C)C(=O)[C@@H](OC3CC(OC4CC(OC6CC(C)(O)C(OC(C)=O)C(C)O6)C(O)C(C)O4)C(O)C(C)O3)[C@H]([C@H](OC)C(=O)[C@@H](O)[C@@H](C)O)C5)OC(C)C2OC(C)=O)OC1C` (stereo partly drawn) [CHROMOMYCIN], the GI50 in experiment [15] is 0.0038 µM (active); in experiment [1], 0.00382 µM (active); in experiment [18], 0.00849 µM (active); in experiment [16], < 0.01 µM (active); in [20], 0.00445 µM (active); in experiment [2], 0.00355 µM (active). In addition, the GI50 in experiment [3] was < 0.01 µM (active); in [4], 0.0101 µM (active); in experiment [5] it was 0.00348 µM (active); in [6], < 0.01 µM (active); in experiment [7] it was < 0.0133 µM (active); in experiment [8], 0.00366 µM (active). Moreover, the GI50 is < 0.01 µM (active) in experiment [9]; < 0.01 µM (active) in [10]; 0.00357 µM (active) in [11]; 0.00673 µM (active) in experiment [17]; < 0.01 µM (active) in [12]; 0.00344 µM (active) in [13]. The GI50 in experiment [14] is 0.0614 µM (active).
